The source of these data is patent US20240262826A1, “WILD TYPE KIT INHIBITORS” (Blueprint Medicines Corporation, priority 2022, published 2024).

The assay deals with wild type c-kit (Homo sapiens (Human), UniProt P10721). In words: PathScan phospho c-kit (Tyr719) sandwich ELISA in SCF-stimulated M-07e cells (pKIT assay). The assay is classed as cell-based. The conditions noted are these: ELISA assay (values not marked *). From the text: The ability of compounds of the disclosure (described herein as test compounds) to inhibit autophosphorylation of wild type c-kit was measures using either a PathScan phospho c-kit (Tyr719) sandwich ELISA (CST #7298) or a Phospho c-Kit (Tyr721) Assay Whole Cell Lysate Kit (MSD: 515DPD/catalog number K15119D-2).
For the PathScan phospho c-kit (Tyr719) sandwich ELISA: M-07e cells were resuspended at 2×10^6 cells/mL in phenol red free, serum-free, GM-CSF-free Iscove's Modified Dulbecco's Medium (IMDM) media with 1% Penicillin-Streptomycin. The cells were then dispensed into the wells of a U-bottom, 96-well plate at 50 uL per well using a multichannel pipet. The plate was allowed to incubate at 37° C. in a humidified tissue culture incubator for 4 hours.
After 4 hours of incubation, each well was dosed with 6.25 uL of test compound at a final DMSO concentration of 0.25% for 60 min at 37° C. to generate an 8-point dose concentration series of test compounds in duplicate. Cells were then incubated for 1 hour at 37° C. in a humidified tissue culture incubator. Next, human SCF at 500 ng/mL was added to the appropriate wells at 6.25 uL/well and the plate was shaken at 450 rpm at room temperature for 10 minutes. AlphaLISA 5× Lysis Buffer supplemented with 1× protease and phosphatase inhibitor was then added at 16 uL/well. The plate was sealed with an adherent cover and shaken at 4° C. at 600 rpm for 30 minutes. After this period of lysis, the plate was stored at −80° C.
When the 96-well plate containing M07e lysates was ready to be processed, the plate was brought to room temperature and 40 μl from each well was transferred to the wells of a PathScan Phospho-c-Kit (Tyr719) Sandwich ELISA plate (CST, Catalog #7298). The ELISA plate was sealed with an adherent cover and incubated for 2 hours at 37° C. Next, the wells were washed 4 times with the provided 1× Wash Buffer, and 100 uL/well of reconstituted Detection Antibody was added to each well, the plate sealed with an adherent cover, and incubated at 37° C. for 1 hour. The wash procedure was repeated and 100 uL/well of reconstituted HRP-Linked secondary antibody was added. The plate was sealed with an adherent cover and incubated at 37° C. for 1 hour. The wash procedure was repeated and 100 uL/well of TMB Substrate was added. The plate was incubated for 10 minutes at room temperature or until the positive reaction elicited a blue color in the appropriate wells. 100 uL/well of STOP solution was added and shaken gently for a few seconds a microplate reader or conventional spectrophotometer e.g., a Perkin Elmer Envision multimode plate reader, part #2105-0010.
An IC50 was calculated using a 4-parameter logistic nonlinear regression.
For orientation: In an ELISA, binding on a coated surface is turned into a signal by an enzyme label.

wild type c-kit, sequence (P10721 26-976): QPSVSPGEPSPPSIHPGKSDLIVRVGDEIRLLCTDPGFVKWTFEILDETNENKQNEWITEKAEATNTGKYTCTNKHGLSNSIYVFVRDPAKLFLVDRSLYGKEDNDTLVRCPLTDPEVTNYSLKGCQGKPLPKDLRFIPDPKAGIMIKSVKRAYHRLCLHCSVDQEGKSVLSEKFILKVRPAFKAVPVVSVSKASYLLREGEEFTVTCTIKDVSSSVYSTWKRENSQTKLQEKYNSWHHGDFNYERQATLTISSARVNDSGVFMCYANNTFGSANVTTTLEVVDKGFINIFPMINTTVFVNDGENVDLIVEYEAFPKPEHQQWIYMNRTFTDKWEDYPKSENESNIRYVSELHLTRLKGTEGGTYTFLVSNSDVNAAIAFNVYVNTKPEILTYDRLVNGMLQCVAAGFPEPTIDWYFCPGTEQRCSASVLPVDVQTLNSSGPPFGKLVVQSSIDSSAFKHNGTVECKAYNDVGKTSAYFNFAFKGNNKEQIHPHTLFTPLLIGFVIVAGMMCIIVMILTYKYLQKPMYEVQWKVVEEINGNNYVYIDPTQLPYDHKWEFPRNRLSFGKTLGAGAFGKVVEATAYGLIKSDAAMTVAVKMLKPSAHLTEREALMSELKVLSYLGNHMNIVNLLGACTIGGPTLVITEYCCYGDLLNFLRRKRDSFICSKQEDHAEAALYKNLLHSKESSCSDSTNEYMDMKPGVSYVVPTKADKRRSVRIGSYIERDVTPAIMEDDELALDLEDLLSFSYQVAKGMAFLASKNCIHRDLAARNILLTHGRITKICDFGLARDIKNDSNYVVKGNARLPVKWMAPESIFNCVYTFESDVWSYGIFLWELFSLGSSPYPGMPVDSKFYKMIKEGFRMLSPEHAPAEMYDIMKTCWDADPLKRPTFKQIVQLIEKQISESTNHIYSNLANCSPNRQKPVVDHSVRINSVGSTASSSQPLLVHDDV

Regarding `CCNc1ccn2ncc(C(=O)Nc3cc(-c4nnn(C5CN(C(=O)OCC)C5)n4)ccc3C)c2c1` [Example 130, ethyl 3-(5-(3-(5-(ethylamino)pyrazolo[1,5-a]pyridine-3-carboxamido)-4-methylphenyl)-2H-tetrazol-2-yl)azetidine-1-carboxylate], the midpoint of inhibition, the IC50, lay at 0.0347 µM.
As to `Cc1cc(Cl)c(-c2nnn(C3CC3)n2)cc1NC(=O)c1cnn2ccc(-c3cnn(CC(C)(C)O)c3)cc12` [Example 226, N-(4-chloro-5-(2-cyclopropyl-2H-tetrazol-5-yl)-2-methylphenyl)-5-(1-(2-hydroxy-2-methylpropyl)-1H-pyrazol-4-yl)pyrazolo[1,5-a]pyridine-3-carboxamide], half-maximal inhibition (IC50) required 0.0005 µM.
As for `Cc1cc(C)c(-c2nnn(CC3CC3(F)F)n2)cc1NC(=O)c1cnn2ccccc12` (centres unmarked) [Example 21, N-(5-(2-((2,2-difluorocyclopropyl)methyl)-2H-tetrazol-5-yl)-2,4-dimethylphenyl)pyrazolo[1,5-a]pyridine-3-carboxamide], the figure is 0.0064 µM; as for `COC(=O)N1CC(n2nnc(-c3ccc(C)c(NC(=O)c4cnn5ccc(N6CCC(F)(F)C6)cc45)c3)n2)C1` [Example 67, methyl 3-(5-(3-(5-(3,3-difluoropyrrolidin-1-yl)pyrazolo[1,5-a]pyridine-3-carboxamido)-4-methylphenyl)-2H-tetrazol-2-yl)azetidine-1-carboxylate], 0.0227 µM; as for `Cc1nn([C@H](C)[C@@H](C)O)cc1-c1ccn2ncc(C(=O)Nc3cc(-c4nnn(C5CC5)n4)c(F)cc3Cl)c2c1` (single isomer, unassigned) [Example 287, N-(2-chloro-5-(2-cyclopropyl-2H-tetrazol-5-yl)-4-fluorophenyl)-5-(1-((2R,3R)-3-hydroxybutan-2-yl)-3-methyl-1H-pyrazol-4-yl)pyrazolo[1,5-a]pyridine-3-carboxamide or N-(2-chloro-5-(2-cyclopropyl-2H-tetrazol-5-yl)-4-fluorophenyl)-5-(1-((2S,3S)-3-hydroxybutan-2-yl)-3-methyl-1H-pyrazol-4-yl)pyrazolo[1,5-a]pyridine-3-carboxamide], 0.0009 µM.
The value for `COC(=O)N1CC(n2nnc(-c3ccc(C)c(NC(=O)c4cnn5ccc(N6CCC[C@H](O)C6)cc45)c3)n2)C1` [Example 70, methyl (S)-3-(5-(3-(5-(3-hydroxypiperidin-1-yl)pyrazolo[1,5-a]pyridine-3-carboxamido)-4-methylphenyl)-2H-tetrazol-2-yl)azetidine-1-carboxylate] was 0.0531 µM.
`COC(=O)N1CC(n2nnc(-c3cc(NC(=O)c4cnn5cc(OCCO)ccc45)c(C)cc3F)n2)C1` [Example 223, methyl 3-(5-(2-fluoro-5-(6-(2-hydroxyethoxy)pyrazolo[1,5-a]pyridine-3-carboxamido)-4-methylphenyl)-2H-tetrazol-2-yl)azetidine-1-carboxylate] gave an IC50 of 0.0234 µM.
As for `Cc1ccc(-c2nnn(C3CN(S(=O)(=O)C4COC4)C3)n2)cc1NC(=O)c1cnn2ccccc12` [Example 183, N-(2-methyl-5-(2-(1-(oxetan-3-ylsulfonyl)azetidin-3-yl)-2H-tetrazol-5-yl)phenyl)pyrazolo[1,5-a]pyridine-3-carboxamide], the figure is 0.0454 µM.
As for `Cc1ccc(-c2cnn(C3CC3)n2)cc1NC(=O)c1cnn2ccccc12` [Example 29, N-(5-(2-cyclopropyl-2H-1,2,3-triazol-4-yl)-2-methylphenyl)pyrazolo[1,5-a]pyridine-3-carboxamide], the figure is 0.0111 µM.
With `Cc1cc(F)c(-c2nnn(C3CC3)n2)cc1NC(=O)c1cnn2ccc(-c3cn(C[C@H](O)C(C)(C)O)nc3C3CC3)cc12` [Example 258, (S)-5-(3-cyclopropyl-1-(2,3-dihydroxy-3-methylbutyl)-1H-pyrazol-4-yl)-N-(5-(2-cyclopropyl-2H-tetrazol-5-yl)-4-fluoro-2-methylphenyl)pyrazolo[1,5-a]pyridine-3-carboxamide], it took 0.0004 µM to reach half-maximal inhibition (IC50).
As for `COCCNc1ccn2ncc(C(=O)Nc3cc(-c4nnn(C5CC(F)(F)C5)n4)c(F)cc3C)c2c1` [Example 105, N-(5-(2-(3,3-difluorocyclobutyl)-2H-tetrazol-5-yl)-4-fluoro-2-methylphenyl)-5-((2-methoxyethyl)amino)pyrazolo[1,5-a]pyridine-3-carboxamide], the figure is 0.0035 µM.
As for `Cc1cc(F)c(-c2nnn(C3CC3)n2)cc1NC(=O)c1cnn2ccc(-c3cn(C[C@@H](O)C(C)(C)O)nc3C3CC3)cc12` [Example 259, (R)-5-(3-cyclopropyl-1-(2,3-dihydroxy-3-methylbutyl)-1H-pyrazol-4-yl)-N-(5-(2-cyclopropyl-2H-tetrazol-5-yl)-4-fluoro-2-methylphenyl)pyrazolo[1,5-a]pyridine-3-carboxamide], the figure is 0.0004 µM; as for `COC(=O)N1CC(n2nnc(-c3ccc(Cl)c(NC(=O)c4cnn5cc(N6CCOCC6)ccc45)c3)n2)C1` [Example 163, methyl 3-(5-(4-chloro-3-(6-morpholinopyrazolo[1,5-a]pyridine-3-carboxamido)phenyl)-2H-tetrazol-2-yl)azetidine-1-carboxylate], 0.0093 µM; as for `CC(C)(O)Cn1cc(-c2ccn3ncc(C(=O)Nc4cc(-n5nnc(C6CC6)n5)ccc4F)c3c2)cn1` [Example 217, N-(5-(5-cyclopropyl-2H-tetrazol-2-yl)-2-fluorophenyl)-5-(1-(2-hydroxy-2-methylpropyl)-1H-pyrazol-4-yl)pyrazolo[1,5-a]pyridine-3-carboxamide], 0.0081 µM.
The value for `COCCNc1ccn2ncc(C(=O)Nc3cc(-c4nnn([C@H]5C[C@H](CO)C5)n4)ccc3C)c2c1` [Example 201, N-(5-(2-((1r,3r)-3-(hydroxymethyl)cyclobutyl)-2H-tetrazol-5-yl)-2-methylphenyl)-5-((2-methoxyethyl)amino)pyrazolo[1,5-a]pyridine-3-carboxamide] was 0.0156 µM.
On to `COCCNc1ccn2ncc(C(=O)Nc3cc(-c4nnn(CCCC(F)(F)F)n4)ccc3C)c2c1` [Example 116, 5-((2-methoxyethyl)amino)-N-(2-methyl-5-(2-(4,4,4-trifluorobutyl)-2H-tetrazol-5-yl)phenyl)pyrazolo[1,5-a]pyridine-3-carboxamide], for which it took 0.0032 µM to reach half-maximal inhibition (IC50).
The value for `Cc1ccc(-c2nnn(C3CN(S(=O)(=O)CC4CCC4)C3)n2)cc1NC(=O)c1cnn2ccccc12` [Example 180, N-(5-(2-(1-((cyclobutylmethyl)sulfonyl)azetidin-3-yl)-2H-tetrazol-5-yl)-2-methylphenyl)pyrazolo[1,5-a]pyridine-3-carboxamide] was 0.0134 µM; that for `Cc1nn([C@H](C)[C@H](C)O)cc1-c1ccn2ncc(C(=O)Nc3cc(-c4nnn(C5CC5)n4)c(F)cc3Cl)c2c1` (single isomer, unassigned) [Example 289, N-(2-chloro-5-(2-cyclopropyl-2H-tetrazol-5-yl)-4-fluorophenyl)-5-(1-((2R,3S)-3-hydroxybutan-2-yl)-3-methyl-1H-pyrazol-4-yl)pyrazolo[1,5-a]pyridine-3-carboxamide or N-(2-chloro-5-(2-cyclopropyl-2H-tetrazol-5-yl)-4-fluorophenyl)-5-(1-((2S,3R)-3-hydroxybutan-2-yl)-3-methyl-1H-pyrazol-4-yl)pyrazolo[1,5-a]pyridine-3-carboxamide] was 0.0006 µM.
As for `Cc1cc(C)c(-c2nnn(C3CC(F)(F)C3)n2)cc1NC(=O)c1cnn2ccc(N3CCOCC3)cc12` [Example 156, N-(5-(2-(3,3-difluorocyclobutyl)-2H-tetrazol-5-yl)-2,4-dimethylphenyl)-5-morpholinopyrazolo[1,5-a]pyridine-3-carboxamide], the figure is 0.0221 µM; as for `COC(=O)N1CC(c2cnn(-c3ccc(C)c(NC(=O)c4cnn5cc(N6CCOCC6)ccc45)c3)n2)C1` [Example 160, methyl 3-(2-(4-methyl-3-(6-morpholinopyrazolo[1,5-a]pyridine-3-carboxamido)phenyl)-2H-1,2,3-triazol-4-yl)azetidine-1-carboxylate], 0.0149 µM.

As usually defined, the IC50 is the concentration needed to halve the response being measured. Read a high IC50 as weaker potency.
